Measurements published in patent publication US8865698B2, “Method of treatment using substituted pyrazolo[1,5-a]pyrimidine compounds” (Array BioPharma Inc., priority 2008, dated 2014).
Structures can show the parent of a compound that is named as a salt.

target: histidine-tagged recombinant human TrkA, cytoplasmic domain (Homo sapiens (Human), UniProt P04629); experiment: TrkA ELISA Assay; type: biochemical; settings: 2.5 nM TrkA, 500 μM ATP, 25 minutes; read-out: TrkA Elisa Enzyme IC50
Experimental: An enzyme-linked immunosorbant assay (ELISA) was used to assess TrkA kinase activity in the presence of inhibitors. Immulon 4HBX 384-well microtiter plates (Thermo part #8755) were coated with a 0.025 mg/mL solution of poly (Glu, Ala, Tyr; 6:3:1; Sigma P3899). Various concentrations of test compound, 2.5 nM TrkA (Invitrogen Corp., histidine-tagged recombinant human TrkA, cytoplasmic domain), and 500 μM ATP were incubated for 25 minutes at ambient temperature in the coated plates while shaking. The assay buffer consisted of 25 mM MOPS pH 7.5, 0.005% (v/v) Triton X-100 and 5 mM MgCl2. The reaction mixture was removed from the plate by washing with PBS containing 0.1% (v/v) Tween 20. The phosphorylated reaction product was detected using 0.2 μg/mL of a phosphotyrosine specific monoclonal antibody (clone PY20) conjugated to horseradish peroxidase in conjunction with the TMB Peroxidase Substrate System (KPL). After the addition of 1M phosphoric acid, the chromogenic substrate color intensity was quantitated via absorbance at 450 nm. IC50 values were calculated using either a 4 or 5-parameter logistic curve fit.

Sequence of histidine-tagged recombinant human TrkA, cytoplasmic domain (P04629 440-796): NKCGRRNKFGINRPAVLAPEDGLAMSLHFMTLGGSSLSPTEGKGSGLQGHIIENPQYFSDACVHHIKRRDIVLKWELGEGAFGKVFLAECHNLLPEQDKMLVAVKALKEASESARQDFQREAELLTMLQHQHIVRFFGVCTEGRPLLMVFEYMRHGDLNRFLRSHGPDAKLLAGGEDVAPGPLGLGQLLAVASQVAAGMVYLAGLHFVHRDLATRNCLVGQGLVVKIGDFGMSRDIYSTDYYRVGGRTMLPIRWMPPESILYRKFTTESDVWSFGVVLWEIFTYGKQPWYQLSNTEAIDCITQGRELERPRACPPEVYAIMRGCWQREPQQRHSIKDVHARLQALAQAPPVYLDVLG

**Q.** Which IC50 does the source give for `CC(C)(C)C(=O)Nc1cnn2ccc(N3CCC[C@@H]3c3cc(F)ccc3F)nc12` [Example 45, (R)—N-(5-(2-(2,5-difluorophenyl)pyrrolidin-1-yl)pyrazolo[1,5-a]pyrimidin-3-yl)pivalamide] here?
**A.** Its IC50 is 6.3 nM.

**Q.** Which IC50 does the source give for `CC(C)(C)OC(=O)N1CC(C(=O)Nc2cnn3ccc(N4CCC[C@@H]4c4cc(F)ccc4Cl)nc23)C1` [Example 46, (R)-tert-butyl 3-(5-(2-(2-chloro-5-fluorophenyl)pyrrolidin-1-yl)pyrazolo[1,5-a]pyrimidin-3-ylcarbamoyl)azetidine-1-carboxylate] here?
**A.** Its IC50 is 37.3 nM.

**Q.** With `O=C(Nc1cnn2ccc(N3CCC[C@@H]3c3cc(F)ccc3Cl)nc12)C1CNC1` [Example 47, (R)—N-(5-(2-(2-chloro-5-fluorophenyl)pyrrolidin-1-yl)pyrazolo[1,5-a]pyrimidin-3-yl)azetidine-3-carboxamide trifluoroacetate] as the compound, how does the IC50 read?
**A.** Its IC50 is 190 nM.

**Q.** How did the IC50 turn out when `CC(C)(C)OC(=O)N1CCC(C)(C(=O)Nc2cnn3ccc(N4CCC[C@@H]4c4cc(F)ccc4Cl)nc23)CC1` [Example 48, (R)-tert-butyl 4-(5-(2-(2-chloro-5-fluorophenyl)pyrrolidin-1-yl)pyrazolo[1,5-a]pyrimidin-3-ylcarbamoyl)-4-methylpiperidine-1-carboxylate] was run?
**A.** Its IC50 is 15.3 nM.

**Q.** Which IC50 does the source give for `CC1(C(=O)Nc2cnn3ccc(N4CCC[C@@H]4c4cc(F)ccc4Cl)nc23)CCNCC1` [Example 49, (R)—N-(5-(2-(2-chloro-5-fluorophenyl)pyrrolidin-1-yl)pyrazolo[1,5-a]pyrimidin-3-yl)-4-methylpiperidine-4-carboxamide hydrochloride] here?
**A.** Its IC50 is 29.2 nM.

**Q.** `CC(C)(O)C(=O)Nc1cnn2ccc(N3CCC[C@@H]3c3cc(F)ccc3F)nc12` [Example 50, (R)—N-(5-(2-(2,5-difluorophenyl)pyrrolidin-1-yl)pyrazolo[1,5-a]pyrimidin-3-yl)-2-hydroxy-2-methylpropanamide] was tested. Which IC50 did it give?
**A.** Its IC50 is 12.4 nM.

**Q.** `O=C(Nc1cnn2ccc(N3CCC[C@@H]3c3cc(F)ccc3F)nc12)C1(C(F)(F)F)CC1` [Example 51, (R)—N-(5-(2-(2,5-difluorophenyl)pyrrolidin-1-yl)pyrazolo[1,5-a]pyrimidin-3-yl)-1-(trifluoromethyl)cyclopropanecarboxamide] was tested. Which IC50 did it give?
**A.** The IC50 was 5.2 nM.

**Q.** `N#CC1(C(=O)Nc2cnn3ccc(N4CCC[C@@H]4c4cc(F)ccc4F)nc23)CC1` [Example 52, (R)-1-cyano-N-(5-(2-(2,5-difluorophenyl)pyrrolidin-1-yl)pyrazolo[1,5-a]pyrimidin-3-yl)cyclopropanecarboxamide] was tested. Which IC50 did it give?
**A.** The IC50 was 4.2 nM.

**Q.** `C[C@]1(C(=O)Nc2cnn3ccc(N4CCC[C@@H]4c4cc(F)ccc4F)nc23)CCCN1` [Example 53, (R)—N-(5-((R)-2-(2,5-difluorophenyl)pyrrolidin-1-yl)pyrazolo[1,5-a]pyrimidin-3-yl)-2-methylpyrrolidine-2-carboxamide] was tested. Which IC50 did it give?
**A.** The IC50 was 31 nM.

**Q.** `CC(C)(F)C(=O)Nc1cnn2ccc(N3CCC[C@@H]3c3cc(F)ccc3F)nc12` [Example 54, (R)—N-(5-(2-(2,5-difluorophenyl)pyrrolidin-1-yl)pyrazolo[1,5-a]pyrimidin-3-yl)-2-fluoro-2-methylpropanamide] was tested. Which IC50 did it give?
**A.** The IC50 was 14.2 nM.

**Q.** For `CC(C)Nc1nc(C(=O)Nc2cnn3ccc(N4CCC[C@@H]4c4cc(F)ccc4F)nc23)cs1` [Example 55, (R)—N-(5-(2-(2,5-difluorophenyl)pyrrolidin-1-yl)pyrazolo[1,5-a]pyrimidin-3-yl)-2-(isopropylamino)thiazole-4-carboxamide], which IC50 is on record?
**A.** Its IC50 is 3.1 nM.

**Q.** How did the IC50 turn out when `CC(C)(C(=O)Nc1cnn2ccc(N3CCC[C@@H]3c3cc(F)ccc3F)nc12)n1cncn1` [Example 56, (R)—N-(5-(2-(2,5-difluorophenyl)pyrrolidin-1-yl)pyrazolo[1,5-a]pyrimidin-3-yl)-2-methyl-2-(1H-1,2,4-triazol-1-yl)propanamide] was run?
**A.** Its IC50 is 14.4 nM.

**Q.** For `Cc1cnc(C(=O)Nc2cnn3ccc(N4CCC[C@@H]4c4cc(F)ccc4F)nc23)cn1` [Example 58, (R)—N-(5-(2-(2,5-difluorophenyl)pyrrolidin-1-yl)pyrazolo[1,5-a]pyrimidin-3-yl)-5-methylpyrazine-2-carboxamide], which IC50 is on record?
**A.** Its IC50 is 3.1 nM.

**Q.** How did the IC50 turn out when `O=C(Nc1cnn2ccc(N3CCC[C@@H]3c3cc(F)ccc3F)nc12)c1ccccn1` [Example 59, (R)—N-(5-(2-(2,5-difluorophenyl)pyrrolidin-1-yl)pyrazolo[1,5-a]pyrimidin-3-yl)picolinamide] was run?
**A.** Its IC50 is 1.7 nM.

**Q.** How did the IC50 turn out when `Cc1cccc(C(=O)Nc2cnn3ccc(N4CCC[C@@H]4c4cc(F)ccc4F)nc23)n1` [Example 60, (R)—N-(5-(2-(2,5-difluorophenyl)pyrrolidin-1-yl)pyrazolo[1,5-a]pyrimidin-3-yl)-6-methylpicolinamide] was run?
**A.** The IC50 was 4.2 nM.

**Q.** How did the IC50 turn out when `O=C(Nc1cnn2ccc(N3CCC[C@@H]3c3cc(F)ccc3F)nc12)c1ccc(Cl)cn1` [Example 61, (R)-5-chloro-N-(5-(2-(2,5-difluorophenyl)pyrrolidin-1-yl)pyrazolo[1,5-a]pyrimidin-3-yl)picolinamide] was run?
**A.** The IC50 was 4 nM.

**Q.** For `O=C(Nc1cnn2ccc(N3CCC[C@@H]3c3cc(F)ccc3F)nc12)c1cc(Cl)ccn1` [Example 62, (R)-4-chloro-N-(5-(2-(2,5-difluorophenyl)pyrrolidin-1-yl)pyrazolo[1,5-a]pyrimidin-3-yl)picolinamide], which IC50 is on record?
**A.** Its IC50 is 4 nM.

**Q.** How did the IC50 turn out when `Cc1cccnc1C(=O)Nc1cnn2ccc(N3CCC[C@@H]3c3cc(F)ccc3F)nc12` [Example 63, (R)—N-(5-(2-(2,5-difluorophenyl)pyrrolidin-1-yl)pyrazolo[1,5-a]pyrimidin-3-yl)-3-methylpicolinamide] was run?
**A.** The IC50 was 1.7 nM.

**Q.** With `CC(C)(CO)C(=O)Nc1cnn2ccc(N3CCC[C@@H]3c3cc(F)ccc3F)nc12` [Example 64, (R)—N-(5-(2-(2,5-difluorophenyl)pyrrolidin-1-yl)pyrazolo[1,5-a]pyrimidin-3-yl)-3-hydroxy-2,2-dimethylpropanamide] as the compound, how does the IC50 read?
**A.** The IC50 was 7.5 nM.

**Q.** For `O=C(Nc1cnn2ccc(N3CCC[C@@H]3c3cc(F)ccc3F)nc12)C1(O)CC1` [Example 65, (R)—N-(5-(2-(2,5-difluorophenyl)pyrrolidin-1-yl)pyrazolo[1,5-a]pyrimidin-3-yl)-1-hydroxycyclopropanecarboxamide], which IC50 is on record?
**A.** The IC50 was 16.5 nM.

**Q.** How did the IC50 turn out when `CNC(C)(C)C(=O)Nc1cnn2ccc(N3CCC[C@@H]3c3cc(F)ccc3F)nc12` [Example 66, (R)—N-(5-(2-(2,5-difluorophenyl)pyrrolidin-1-yl)pyrazolo[1,5-a]pyrimidin-3-yl)-2-methyl-2-(methylamino)propanamide] was run?
**A.** Its IC50 is 52.5 nM.

**Q.** Which IC50 does the source give for `O=C(Nc1cnn2ccc(N3CCC[C@@H]3c3cc(F)ccc3F)nc12)c1ncccn1` [Example 67, (R)—N-(5-(2-(2,5-difluorophenyl)pyrrolidin-1-yl)pyrazolo[1,5-a]pyrimidin-3-yl)pyrimidine-2-carboxamide] here?
**A.** The IC50 was 3 nM.

**Q.** With `O=C(Nc1cnn2ccc(N3CCC[C@@H]3c3cccc(F)c3)nc12)c1ccccn1` [Example 68, (R)—N-(5-(2-(3-fluorophenyl)pyrrolidin-1-yl)pyrazolo[1,5-a]pyrimidin-3-yl)picolinamide] as the compound, how does the IC50 read?
**A.** The IC50 was 4 nM.

**Q.** How did the IC50 turn out when `Cc1cccnc1C(=O)Nc1cnn2ccc(N3CCC[C@@H]3c3cccc(F)c3)nc12` [Example 69, (R)—N-(5-(2-(3-fluorophenyl)pyrrolidin-1-yl)pyrazolo[1,5-a]pyrimidin-3-yl)-3-methylpicolinamide] was run?
**A.** The IC50 was 6.2 nM.

**Q.** With `Cn1ccc(C(=O)Nc2cnn3ccc(N4CCC[C@@H]4c4cccc(F)c4)nc23)cc1=O` [Example 70, (R)—N-(5-(2-(3-fluorophenyl)pyrrolidin-1-yl)pyrazolo[1,5-a]pyrimidin-3-yl)-1-methyl-2-oxo-1,2-dihydropyridine-4-carboxamide] as the compound, how does the IC50 read?
**A.** The IC50 was 55.6 nM.

**Q.** `O=C(Nc1cnn2ccc(N3CCC[C@@H]3c3cc(F)ccc3F)nc12)c1cccc(Cl)n1` [Example 71, (R)-6-chloro-N-(5-(2-(2,5-difluorophenyl)pyrrolidin-1-yl)pyrazolo[1,5-a]pyrimidin-3-yl)picolinamide] was tested. Which IC50 did it give?
**A.** The IC50 was 3.5 nM.

**Q.** Which IC50 does the source give for `CCS(=O)(=O)Nc1ccc(C(=O)Nc2cnn3ccc(N4CCC[C@@H]4c4cccc(F)c4)nc23)cc1` [Example 72, (R)-4-(ethylsulfonamido)-N-(5-(2-(3-fluorophenyl)pyrrolidin-1-yl)pyrazolo[1,5-a]pyrimidin-3-yl)benzamide] here?
**A.** Its IC50 is 45.5 nM.

**Q.** Which IC50 does the source give for `Cn1ccc(C(=O)Nc2cnn3ccc(N4CCC[C@@H]4c4cccc(F)c4)nc23)n1` [Example 73, (R)—N-(5-(2-(3-fluorophenyl)pyrrolidin-1-yl)pyrazolo[1,5-a]pyrimidin-3-yl)-1-methyl-1H-pyrazole-3-carboxamide] here?
**A.** Its IC50 is 8.5 nM.

**Q.** `O=C(Nc1cnn2ccc(N3CCC[C@@H]3c3cccc(F)c3)nc12)c1cc[nH]n1` [Example 74, (R)—N-(5-(2-(3-fluorophenyl)pyrrolidin-1-yl)pyrazolo[1,5-a]pyrimidin-3-yl)-1H-pyrazole-3-carboxamide] was tested. Which IC50 did it give?
**A.** The IC50 was 15.3 nM.

**Q.** `COc1cccc(C(=O)Nc2cnn3ccc(N4CCC[C@@H]4c4cccc(F)c4)nc23)n1` [Example 75, (R)—N-(5-(2-(3-fluorophenyl)pyrrolidin-1-yl)pyrazolo[1,5-a]pyrimidin-3-yl)-6-methoxypicolinamide] was tested. Which IC50 did it give?
**A.** Its IC50 is 7.4 nM.

**Q.** How did the IC50 turn out when `O=C(Nc1cnn2ccc(N3CCC[C@@H]3c3cccc(F)c3)nc12)c1cccnc1` [Example 76, (R)—N-(5-(2-(3-fluorophenyl)pyrrolidin-1-yl)pyrazolo[1,5-a]pyrimidin-3-yl)nicotinamide] was run?
**A.** The IC50 was 53.3 nM.

**Q.** Which IC50 does the source give for `O=C(Nc1cnn2ccc(N3CCC[C@@H]3c3cccc(F)c3)nc12)c1ccncc1` [Example 77, (R)—N-(5-(2-(3-fluorophenyl)pyrrolidin-1-yl)pyrazolo[1,5-a]pyrimidin-3-yl)isonicotinamide] here?
**A.** The IC50 was 71.8 nM.
